Measured values from patent US11691989B2, “Macrocyclic indoles as Mcl-1 inhibitors” (ASCENTAGE PHARMA (SUZHOU) CO., LTD., priority 2018, dated 2023).

Tests used:
[1] = Microsome clearance assay, human; assay type: in vitro ADME; conditions: 0.5 mg/ml protein, 1 mM NADPH, 60 minutes; for microsomal CLint at 5 μM: human, pooled liver microsomes, pH 7.4, human liver microsomes, read-out: Human Liver Microsome Clint (μL/min/mg protein)
Protocol: (§1) Representative Compounds of the Disclosure were tested in a microsome clearance assay. Pooled liver microsomes (20 mg/ml) from human, male Wister rat, and male CD-1 mouse were obtained from BD Bioscience (Franklin Lakes, N.J. USA). Incubation reaction mixtures contained a final concentration of 0.1M sodium phosphate buffer (pH 7.4), 0.5 mg/ml microsomal protein, 5 μM of test sample and 1 mM NADPH in a total volume of 400 μl. The incubations were done for 60 minutes and 300 μl of the mixtures was transferred to 150 μl of ice cold methanol to terminate reactions. After vortexes for 3 minutes and centrifuged at 4000 rpm at 4° C. for 10 minutes, the clear supernatant was used directly for analysis. The samples were analyzed by Applied Biosystems API 3200 Q TRAP LC/MS/MS system using electrospray ionization mode.

[2] = Microsome clearance assay, mouse; assay type: in vitro ADME; conditions: 0.5 mg/ml protein, 1 mM NADPH, 60 minutes; for microsomal CLint at 5 μM: male, CD-1, mouse, pooled liver microsomes, pH 7.4, mouse liver microsomes, read-out: Mouse Liver Microsome Clint (μL/min/mg protein)
Protocol: as §1

OPM-2 cells = experiment: Cell viability assay (OPM-2 cells), CCK-8; assay type: cell-based; conditions: 5% FBS
Protocol: Cell Viability Assay (OPM-2 cells)
OPM-2 cells were obtained from Deutsche Sammlung von Mikroorganismen and Zellkulturen GmbH (DSMZ). Cells were maintained in the recommended culture medium with 10% FBS at 37° C. and an atmosphere of 5% CO2.
The effect of representative Compounds of the Disclosure on cell viability was determined using Cell Counting Kit-8 (CCK-8) assay (Shanghai Life iLab Bio Technology) according to the manufacturer's instructions. Each tested compound was serially diluted in culture medium, 100 μL of the compound dilution was added into 96-well plates. 100 μL of an OPM-2 cell suspension (20000 cells/well) in culture medium were seeded into the corresponding well of the plate and the cells were incubated at 37° C. in an atmosphere of 5% CO2 for 24 hours. In the next day, 20 μL of CCK-8 solution was added to each well of the plate and incubated for 4 hours.
The plates were read at 450 nm on the microplate spectrophotometer (SpectraMax plus 384, Molecular devices). The readings were normalized to the vehicle cells, and the IC50 was calculated by nonlinear regression analysis using GraphPad Prism 6 software.

NCI-H929 cells = experiment: Cell viability assay (NCI-H929 cells), CCK-8; assay type: cell-based; conditions: 5% FBS
Protocol: Cell Viability Assay (NCI-H929 cells)
NCI-H929 cells were obtained from American Type Culture Collection (ATCC). Cells were maintained in the recommended culture medium (RPMI 1640) with 10% FBS and 0.05 mM BME at 37° C. and an atmosphere of 5% CO2.
The effect of Compounds on cell viability was determined using Cell Counting Kit-8 (CCK-8) assay according to the manufacturer's instructions. 95 μL of NCI-H929 cell suspension (20000 cells/well) in culture medium were seeded into 96-well plates and cultured 4 hrs. Each tested compound was serially diluted in DMSO, then 5 μL of the compound or DMSO was diluted in 95 μL medium once more. At last, 5 μL of the compound dilution was added to the corresponding well of the cell plate. After the addition of the tested compound, the cells were incubated at 37° C. in an atmosphere of 5% CO2 for 24 hrs. At the end, 10 μL of CCK-8 solution was added to each well of the plate and incubated for 1-4 hours. The plates were read at 450 nm on the microplate reader (BioTek Synergy 1MF). The readings were normalized to the vehicle cells, and the IC50 was calculated by nonlinear regression analysis using GraphPad Prism 6 software.

[3] = molecular target: Mcl-1 protein (residues 171-323) (Homo sapiens (Human), UniProt Q07820); experiment: Inhibition of Mcl-1 by fluorescence polarization (FP) competitive binding assay with FAM-Bid tracer; conditions: 2 nM FAM-Bid, 20 nM Mcl-1, 30 min, read-out: Mc1-1 (FP)
Protocol: Inhibition of Mcl-1 by fluorescence polarization (FP) assay.
The method used a fluorescein labelled peptide (FAM-Bid) which binds to the Mcl-1 protein leading to an increased anisotropy measured in milli-polarization (mP) values using a plate reader.
A 10-points serial dilution of each compound was prepared in DMSO and 5 μL solution was transferred into flat bottomed, 96-well back plate (final DMSO concentration 5%). 120 μL of Buffer (PBS, 0.01% BGG (Sigma Cat. #SRE0011), 0.01% Triton X-100), containing the Fluorescein labelled peptide (Final concentration 2 nM) and Mcl-1 protein (final concentration 20 nM) was then added. […] 10-points dose response curves were plotted with GraphPad software using Sigmoidal Dose-Response Model and the IC50 values were determined by nonlinear regression fitting of the competition curves.

[4] = Microsome clearance assay, rat; assay type: in vitro ADME; conditions: 0.5 mg/ml protein, 1 mM NADPH, 60 minutes; for microsomal CLint at 5 μM: male, Wister, rat, pooled liver microsomes, pH 7.4, rat liver microsomes, read-out: Rat Liver Microsome Clint (μL/min/mg protein)
Protocol: as §1

Sequence of Mcl-1 protein (residues 171-323) (Q07820 171-323): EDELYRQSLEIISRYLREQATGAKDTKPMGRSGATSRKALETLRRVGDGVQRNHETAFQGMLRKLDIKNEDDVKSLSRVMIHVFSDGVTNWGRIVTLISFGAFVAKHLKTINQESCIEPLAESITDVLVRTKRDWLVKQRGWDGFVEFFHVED

microsomal CLint at 5 μM [1] [µL/min/mg] | microsomal CLint at 5 μM [2] [µL/min/mg] | IC50 (NCI-H929 cells; Homo sapiens, NCI-H929, 24 h) [nM] | IC50 [3] [nM] | microsomal CLint at 5 μM [4] [µL/min/mg] | Human Liver Microsome Clint (μL/min/mg protein) ([1]; human liver microsomes, 5 μM) | Mouse Liver Microsome Clint (μL/min/mg protein) ([2]; mouse liver microsomes, 5 μM) | IC50 (NCI-H929 cells; 24 hrs) [nM] | Rat Liver Microsome Clint (μL/min/mg protein) ([4]; rat liver microsomes, 5 μM) | SMILES | IC50 (OPM-2 cells; Homo sapiens, OPM-2, 24 h) [nM] | IC50 (OPM-2 cells; 24 hours) [nM]
21.8 | 28.8 | 3040 | 15 | 122 | – | – | – | – | Cc1c2c(nn1C)CSCc1cc(n(C)n1)CSc1cc(c3ccc(F)cc3c1)OCCCn1c(C(=O)O)c(C(F)(F)F)c3c-2c(Cl)ccc31 [Cpd. No. 24, (Z)-1^5-chloro-9^6-fluoro-2^1,2^5,6^1-trimethyl-1^3-(trifluoromethyl)-1^1H,2^1H,6^1H-10-oxa-4,8-dithia-1(4,1)-indola-2(4,3),6(3,5)-dipyrazola-9(3,1)-naphthalenacyclotridecaphane-1^2-carboxylic acid] | 5420 | –
21.4 | 54.6 | 621 | 35 | 42 | – | – | – | – | Cc1c(C(=O)O)n2c3ccc(Cl)c(c13)-c1c(nn3c1COCC3)CN(S(=O)(=O)c1ccccc1)Cc1cc(n(C)n1)CSc1cc(c3ccc(F)cc3c1)OCCC2 [Cpd. No. 29, (Z)-1^5-chloro-9^6-fluoro-1^3, 6^1-di methyl-4-(phenylsulfonyl)-26,27-dihydro-1^1H,2^4H,6^1H-10-oxa-8-thia-4-aza-2(3,2)-pyrazolo[5,1-c][1,4]oxazina-1(4,1)-indola-6(3,5)-pyrazola-9(3,1)-naphthalenacyclotridecaphane-1^2-carboxylic acid] | 1900 | –
8 | 43.4 | 300 | 8 | 21.6 | – | – | – | – | Cc1c(C(=O)O)n2c3ccc(Cl)c(c13)-c1c(nn(C)c1C)CN(S(C)(=O)=O)Cc1cc(n(C)n1)CSc1cc(c3ccccc3c1)OCCC2 [Cpd. No. 46, (Z)-1^5-chloro-1^3,2^1,2^5,6^1-tetramethyl-4-(methylsulfonyl)-1^11-1,2^1H,6^1H-10-oxa-8-thia-4-aza-1(4,1)-indola-2(4,3),6(3,5)-dipyrazola-9(3,1)-naphthalenacyclotridecaphane-1^2-carboxylic acid] | 637 | –

The next lines start with the molecule.

SMILES | microsomal CLint at 5 μM [1] [µL/min/mg] | microsomal CLint at 5 μM [2] [µL/min/mg] | IC50 (NCI-H929 cells; Homo sapiens, NCI-H929, 24 h) [nM] | IC50 [3] [nM] | microsomal CLint at 5 μM [4] [µL/min/mg] | Human Liver Microsome Clint (μL/min/mg protein) ([1]; human liver microsomes, 5 μM) | Mouse Liver Microsome Clint (μL/min/mg protein) ([2]; mouse liver microsomes, 5 μM) | IC50 (NCI-H929 cells; 24 hrs) [nM] | Rat Liver Microsome Clint (μL/min/mg protein) ([4]; rat liver microsomes, 5 μM) | IC50 (OPM-2 cells; Homo sapiens, OPM-2, 24 h) [nM] | IC50 (OPM-2 cells; 24 hours) [nM]
CC(=O)NCc1c(C(=O)O)n2c3ccc(Cl)c(c13)-c1c(nn(C)c1C)CSCc1cc(n(C)n1)CSc1cc(c3ccccc3c1)OCCC2 [Cpd. No. 12, (Z)-1^3-(acetamidomethyl)-1^5-chloro-2^1,2^5,6^1-trimethyl-1^1H,2^1H,6^1E-10-oxa-4,8-dithia-1(4,1)-indola-2(4,3),6(3,5)-dipyrazola-9(3,1)-naphthalenacyclotridecaphane-1^2-carboxylic acid] | 3.6 | 13.8 | 273 | 18 | 30.6 | – | – | – | – | 9860 | –
Cc1ccc2c3c(C)c(C(=O)O)n2CCCOc2cc(cc4cc(F)ccc24)SCc2cc(nn2C)CSCc2nn(C)c(C)c2-c13 [Cpd. No. 22, (Z)-9^6-fluoro-1^3, 1^5,2^1,2^5,6^1-pentamethyl-1^1H,2^1H,6^1H-10-oxa-4,8-dithia-1(4,1)-indola-2(4,3), 6(3,5)-dipyrazola-9(3,1)-naphthalenacyclotridecaphane-1^2-carboxylic acid] | 11.8 | 32 | 61 | 15 | 30.8 | – | – | – | – | 73 | –
Cc1c2c(nn1C)CSCc1cc(n(C)n1)CSc1cc(c3ccc(F)cc3c1)OCCCn1c(C(=O)O)c(CN(C)S(=O)(=O)C(F)(F)F)c3c-2c(Cl)ccc31 [Cpd. No. 23, (Z)-1^5-chloro-9^6-fluoro-2^1,2^5,6^1-trimethyl-1^3-(((1,1,1-trifluoro-N-methylmethyl)sulfonamido)methyl)-1^1H,2^1H,6^1H-10-oxa-4,8-dithia-1(4,1)-indola-2(4,3),6(3,5)-dipyrazola-9(3,1)-naphthalenacyclotridecaphane-1^2-carboxylic acid] | 48.2 | 52.4 | 1070 | 16 | 30.4 | – | – | – | – | 1870 | –
Cc1nn(C)c2c1-c1c(Cl)ccc3c1c(C)c(C(=O)O)n3CCCOc1cc(cc3cc(F)ccc13)SCc1cc(nn1C)CSC2 [Cpd. No. 28, (Z)-1^5-chloro-9^6-fluoro-1^3,2^1,2^3,6^1-tetramethyl-1^1H,2^1H,6^111-10-oxa-4,8-dithia-1(4,1)-indola-2(4,5),6(3,5)-dipyrazola-9(3,1)-naphthalenacyclotridecaphane-1^2-carboxylic acid] | 42.8 | 116 | 47 | 14 | 38.4 | – | – | – | – | 66 | –
Cc1c(C(=O)O)n2c3ccc(Cl)c(c13)-c1c(nn3c1COCC3)CN(S(=O)(=O)C1CC1)Cc1cc(n(C)n1)CSc1cc(c3ccc(F)cc3c1)OCCC2 [Cpd. No. 31, (Z)-1^5-chloro-4-(cyclopropylsulfonyl)-9^6-fluoro-1^3, 6^1-di methyl-2^6,2^7-dihydro-1^1H,2^4H,6^1H-10-oxa-8-thia-4-aza-2(3,2)-pyrazolo[5,1-c][1,4]oxazina-1(4,1)-indola-6(3,5)-pyrazola-9(3,1)-naphthalenacyclotridecaphane-1^2-carboxylic acid] | 7.4 | 45.2 | 623 | 16 | 33 | – | – | – | – | 1940 | –
Cc1c(C(=O)O)n2c3ccc(Cl)c(c13)-c1c(nn(C)c1C)CN(S(C)(=O)=O)Cc1cc(n(C)n1)CSc1cc(c3ccc(F)cc3c1)OCCC2 [Cpd. No. 34, (S)-(Z)-1^5-chloro-9^6-fluoro-1^3,2^1,2^5,6^1-tetramethyl-4-(methylsulfonyl)-1^1H,2^1H, 6^1H-10-oxa-8-thia-4-aza-1(4,1)-indola-2(4,3),6(3,5)-dipyrazola-9(3,1)-naphthalenacyclotridecaphane-1^2-carboxylate] | – | – | – | 2600 | – | <2.8 | 110 | 8520 | 13.0 | – | > 10000
Cc1c(C(=O)O)n2c3ccc(Cl)c(c13)-c1c(nn(C)c1C)CN(S(=O)(=O)C(F)(F)F)Cc1cc(n(C)n1)CSc1cc(c3ccc(F)cc3c1)OCCC2 [Cpd. No. 35, (Z)-1^5-chloro-9^6-fluoro-1^3,2^1,2^5,6^1-tetramethyl-4-((trifluoromethyl)sulfonyl)-1^1H,2^1H,6^1H-10-oxa-8-thia-4-aza-1(4,1)-indola-2(4,3),6(3,5)-dipyrazola-9(3,1)-naphthalenacyclotridecaphane-1^2-carboxylic acid] | 53.2 | 156 | 25 | 15 | 42 | – | – | – | – | 57 | –
